From patent publication EP0662975B1, “2-SUBSTITUTED ADENOSINES WITH A-2 RECEPTOR AFFINITY” (priority 1992, dated 1994)

Tests used:
Adenosine A-1 receptor = biological target: T1, Adenosine A-1 receptor (Rattus norvegicus, UniProt P25099); experiment: Test for affinity for brain adenosine A-1 receptor binding sites ([3H]cyclohexyladenosine competition); conditions: rat brain membranes, [3H]cyclohexyladenosine 0.8 nM
T1 construct: the membranes are isolated from whole animal brains; from tissue; host or cells: whole brain membranes of male Sprague-Dawley rats
T1 sequence (P25099 1-326): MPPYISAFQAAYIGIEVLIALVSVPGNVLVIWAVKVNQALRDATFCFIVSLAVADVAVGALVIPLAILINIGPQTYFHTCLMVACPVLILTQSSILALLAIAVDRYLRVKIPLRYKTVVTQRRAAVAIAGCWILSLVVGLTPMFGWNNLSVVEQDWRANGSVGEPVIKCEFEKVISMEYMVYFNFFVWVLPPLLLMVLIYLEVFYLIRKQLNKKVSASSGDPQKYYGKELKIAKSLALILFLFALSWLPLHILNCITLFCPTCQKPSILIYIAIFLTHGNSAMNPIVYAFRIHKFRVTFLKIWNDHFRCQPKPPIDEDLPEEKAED
Text: The test described below is used to determine the potency of test compounds to compete with the ligand […] for he Adenosine A-1 receptor prepared from rat brain membranes. Male Sprague-Dawley rats are sacrificed by decapitation and the membranes are isolated from whole animal brains. (See R. Goodman, M. Cooper. M. Gavish, and S. Synder, Guanine Nucleotide and Cation Regulation of the Binding of [3H]Diethylphenylxanthine to Adenosine A-1 Receptors in Brain Membrane, Molecular Pharmacology, 21, 329-335 (1982).
Membranes are homogenized (using polytron setting 7 for 10 seconds) in 25 volumes of ice-cold 50 mM Tris-HCl buffer, pH 7.7. […]
The incubation tubes, in triplicate, receive 100 µl of [3H]cyclohexyladenosine, 0.8 nM in the assay, 200 µl of test compounds at various concentrations over the range of 10^-10 M to 10^-6 M diluted with […] Tris-HCl buffer (pH 7.7), 0.2 ml of membrane suspension (8 mg wet weight) and in a final volume of 2 ml with Tris buffer. […] The filters are counted by liquid scintillation spectrometry in 8 ml of Omniflour containing 5% Protosol.
Specific binding of [3H]cyclohexyladenosine is measured as the excess over blanks taken in the presence of 10^-5 M 2-chloroadenosine. Total membrane-bound radioactivity is about 5% of that added to the test tubes. […] Protein content of the membrane suspension is determined by the method of Lowry, et al., Ibid, 265. […]

adenosine A-2 receptors = biological target: T2, adenosine A-2 receptors (Rattus norvegicus, UniProt P30543); experiment: Test for affinity for brain adenosine A-2 receptors ([3H]NECA competition, striatal membranes); type: binding; conditions: for Ki: rat brain striatum membranes, [3H]NECA, read-out: A-2 Receptor Ki; for A-1 Ki/A-2 Ki: ratio of A-1 Ki to A-2 Ki (selectivity)
T2 construct: from tissue; host or cells: striatal membranes of young male C-D rats (Charles River)
T2 sequence (P30543 whole entry): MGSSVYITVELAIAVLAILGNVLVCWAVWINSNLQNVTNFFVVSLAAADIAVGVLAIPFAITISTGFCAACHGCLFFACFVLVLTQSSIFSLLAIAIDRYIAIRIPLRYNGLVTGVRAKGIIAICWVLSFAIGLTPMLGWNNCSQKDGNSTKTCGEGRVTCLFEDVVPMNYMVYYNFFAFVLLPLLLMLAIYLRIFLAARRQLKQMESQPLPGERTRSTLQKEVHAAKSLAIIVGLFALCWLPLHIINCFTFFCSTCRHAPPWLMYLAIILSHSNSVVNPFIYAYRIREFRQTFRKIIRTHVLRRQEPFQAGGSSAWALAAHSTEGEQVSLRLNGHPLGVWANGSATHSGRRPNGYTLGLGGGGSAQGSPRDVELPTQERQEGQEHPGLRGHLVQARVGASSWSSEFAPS
Text: The test described below was used to determine the potency of test compounds to compete with the ligand [3H]-5'-N-ethyl-carboxamidoadenosine (NECA) for the adenosine A-2 receptors prepared from animal brain membranes. (See also R.R. Bruns, G.H. Lu, and T.A. […] Pharmacol., 29, 331-346 (1986).) Young male rats (C-D strain), obtained from Charles River, are killed by decapitation and the brains are removed. Membranes for ligand binding are isolated from rat brain striatum. The tissue is homogenized in 20 vol ice-cold 50 mM Tris-HCl buffer (pH 7.7) using a polytron (setting for 6 to 20 seconds). The homogenate is centrifuged at 50,000 x g for 10 minutes at 4°C. The pellet is again homogenized in a polytron in 20 vol of buffer, and centrifuged as before. The pellet is finally resuspended in 40 vol of 50 mM Tris-HCl (pH 7.7) per gram of original wet weight of tissue. […] Incubations are carried out at 25°C for 60 minutes. Each tube is filtered through GF/B glass fiber filters using a vacuum. The filters are rinsed two times with 5 ml of the ice-cold buffer. The membranes on the filters are transferred to scintillation vials to which 8 ml of Omnifluor with 5% Protosol is added. The filters are counted by liquid scintillation spectrometry. Specific binding of [3H]NECA is measured as the excess over blanks run in the presence of 100 µM 2-chloroadenosine. Total membrane-bound radioactivity is about 2.5% of that added to the test tubes. […] Specific binding to membranes is about 50% of the total bound. Protein content of the membrane suspension is determined by the method of O.H. Lowry, N.J. Rosebrough, A.L. Farr and R.J. Randall, Protein Measurements With Folin Phenol Reagent, J. Biol. Chem., 193, 265-275 (1951).

A-2 receptor = conditions: rat brain slice assay; cited from earlier work

Ki (Adenosine A-1 receptor) | Ki (adenosine A-2 receptors) | A-1 Ki/A-2 Ki (adenosine A-2 receptors) | SMILES | Ki (A-2 receptor)
5800 nM | 158 nM | 37 | C[C@@H](Cc1ccccc1)Nc1nc(N)c2ncn([C@@H]3O[C@H](CO)[C@@H](O)[C@H]3O)c2n1 [Compound 2, (S)-2-[(phenylisopropyl)amino]adenosine] | –
8400 nM | 3.5 nM | 2400 | C[C@H](Cc1ccccc1)Nc1nc(N)c2ncn([C@@H]3O[C@H](CO)[C@@H](O)[C@H]3O)c2n1 [Compound 1, (R)-2-[(phenylisopropyl)amino]adenosine] | –
– | – | – | CCCn1c(=O)c2[nH]c(-c3ccc(OCC(=O)O)cc3)nc2n(CCC)c1=O [XCC, carboxylic acid congener of 8-phenyl-1,3-dipropylxanthine] | 34 ± 13 nM
